Assay results reported in ChEMBL document CHEMBL2150974 (J Med Chem, 2012).
The source made the active and inactive calls. The calls are words filed in the database; no cut-off is given here.

Tests used:
[1] = molecular target: T1, Mitogen-activated protein kinase 14 (Homo sapiens, UniProt Q16539); test: Inhibition of p38alpha-dependent TNFalpha production in human whole blood
[2] = molecular target: T1, Mitogen-activated protein kinase 14; test: Inhibition of p38alpha by immunosorbent based kinase assay
[3] = molecular target: T2, Serine/threonine-protein kinase PLK4 (Homo sapiens) (UniProt O00444); test: Inhibition of SAK at 10 uM
T2 sequence (whole entry): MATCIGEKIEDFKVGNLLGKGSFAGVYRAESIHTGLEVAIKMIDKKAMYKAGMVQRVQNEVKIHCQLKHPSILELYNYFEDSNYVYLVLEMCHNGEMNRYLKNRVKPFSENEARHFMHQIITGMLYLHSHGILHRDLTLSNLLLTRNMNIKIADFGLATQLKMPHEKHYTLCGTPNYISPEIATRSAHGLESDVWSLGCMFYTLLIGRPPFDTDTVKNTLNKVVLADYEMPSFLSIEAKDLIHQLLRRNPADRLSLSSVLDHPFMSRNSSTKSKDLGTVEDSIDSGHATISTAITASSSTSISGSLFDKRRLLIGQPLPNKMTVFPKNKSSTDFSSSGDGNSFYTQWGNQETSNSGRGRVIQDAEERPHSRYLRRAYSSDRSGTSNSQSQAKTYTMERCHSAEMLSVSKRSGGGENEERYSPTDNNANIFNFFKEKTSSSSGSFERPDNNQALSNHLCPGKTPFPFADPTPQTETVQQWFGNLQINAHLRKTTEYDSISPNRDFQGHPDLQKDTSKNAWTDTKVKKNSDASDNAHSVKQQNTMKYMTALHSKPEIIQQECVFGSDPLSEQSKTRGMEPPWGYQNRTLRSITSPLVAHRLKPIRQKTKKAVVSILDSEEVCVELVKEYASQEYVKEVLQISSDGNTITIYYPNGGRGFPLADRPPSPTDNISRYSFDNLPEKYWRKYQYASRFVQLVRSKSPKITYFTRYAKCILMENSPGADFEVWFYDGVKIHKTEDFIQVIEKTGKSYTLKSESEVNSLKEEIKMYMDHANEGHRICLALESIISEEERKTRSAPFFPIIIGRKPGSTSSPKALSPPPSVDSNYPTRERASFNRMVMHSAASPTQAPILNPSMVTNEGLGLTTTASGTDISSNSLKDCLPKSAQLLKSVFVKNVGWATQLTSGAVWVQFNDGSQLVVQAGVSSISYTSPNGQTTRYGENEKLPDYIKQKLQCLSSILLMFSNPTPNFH

[4] = molecular target: Vascular endothelial growth factor receptor 2 (Homo sapiens) (UniProt P35968); test: Inhibition of VEGFR2 at 10 uM
[5] = molecular target: BDNF/NT-3 growth factors receptor (Homo sapiens) (UniProt Q16620); test: Inhibition of TRKB at 10 uM
[6] = molecular target: Insulin receptor (Homo sapiens) (UniProt P06213); test: Inhibition of INSR at 10 uM
[7] = molecular target: Proto-oncogene tyrosine-protein kinase Src (Homo sapiens) (UniProt P12931); test: Inhibition of SRC at 10 uM
[8] = molecular target: Tyrosine-protein kinase receptor UFO (Homo sapiens) (UniProt P30530); test: Inhibition of AXL at 10 uM
[9] = molecular target: RAC-alpha serine/threonine-protein kinase (Homo sapiens) (UniProt P31749); test: Inhibition of AKT1 at 10 uM
[10] = molecular target: Insulin-like growth factor 1 receptor (Homo sapiens) (UniProt P08069); test: Inhibition of IGF1R at 10 uM
[11] = tested on: Serine/threonine-protein kinase B-raf (Homo sapiens), P15056 [V600E]; test: Inhibition of BRAF V600E mutant at 10 uM
[12] = molecular target: Serine/threonine-protein kinase N1 (Homo sapiens) (UniProt Q16512); test: Inhibition of PRK1 at 10 uM
[13] = molecular target: Focal adhesion kinase 1 (Homo sapiens) (UniProt Q05397); test: Inhibition of FAK at 10 uM
[14] = molecular target: Serine/threonine-protein kinase PLK1 (Homo sapiens) (UniProt P53350); test: Inhibition of PLK1 at 10 uM
[15] = molecular target: Hepatocyte growth factor receptor (Homo sapiens) (UniProt P08581); test: Inhibition of MET at 10 uM
[16] = molecular target: T3, NUAK family SNF1-like kinase 1 (Homo sapiens) (UniProt O60285); test: Inhibition of ARK5 at 10 uM
T3 sequence (whole entry): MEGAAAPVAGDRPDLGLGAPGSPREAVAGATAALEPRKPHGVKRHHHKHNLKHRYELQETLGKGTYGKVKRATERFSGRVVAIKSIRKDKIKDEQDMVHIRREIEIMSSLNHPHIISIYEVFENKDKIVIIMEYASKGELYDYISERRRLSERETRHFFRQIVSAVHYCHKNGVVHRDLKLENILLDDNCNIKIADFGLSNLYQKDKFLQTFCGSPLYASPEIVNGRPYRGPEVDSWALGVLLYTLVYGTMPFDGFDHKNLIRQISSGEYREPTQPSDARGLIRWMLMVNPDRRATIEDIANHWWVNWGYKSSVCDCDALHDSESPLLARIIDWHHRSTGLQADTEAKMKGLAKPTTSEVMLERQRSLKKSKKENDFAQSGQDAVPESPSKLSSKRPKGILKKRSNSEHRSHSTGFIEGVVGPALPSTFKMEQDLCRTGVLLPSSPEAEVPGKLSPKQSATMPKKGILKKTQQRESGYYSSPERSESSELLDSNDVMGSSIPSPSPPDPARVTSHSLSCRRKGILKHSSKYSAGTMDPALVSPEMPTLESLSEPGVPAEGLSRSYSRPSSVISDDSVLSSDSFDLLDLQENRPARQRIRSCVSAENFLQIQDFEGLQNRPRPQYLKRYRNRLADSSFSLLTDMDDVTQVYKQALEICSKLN

[17] = molecular target: Aurora kinase B (Homo sapiens) (UniProt Q96GD4); test: Inhibition of AuroraB at 10 uM
[18] = molecular target: Casein kinase II subunit alpha (Homo sapiens) (UniProt P68400); test: Inhibition of CK2alpha1 at 10 uM

T1 sequence (Q16539 whole entry): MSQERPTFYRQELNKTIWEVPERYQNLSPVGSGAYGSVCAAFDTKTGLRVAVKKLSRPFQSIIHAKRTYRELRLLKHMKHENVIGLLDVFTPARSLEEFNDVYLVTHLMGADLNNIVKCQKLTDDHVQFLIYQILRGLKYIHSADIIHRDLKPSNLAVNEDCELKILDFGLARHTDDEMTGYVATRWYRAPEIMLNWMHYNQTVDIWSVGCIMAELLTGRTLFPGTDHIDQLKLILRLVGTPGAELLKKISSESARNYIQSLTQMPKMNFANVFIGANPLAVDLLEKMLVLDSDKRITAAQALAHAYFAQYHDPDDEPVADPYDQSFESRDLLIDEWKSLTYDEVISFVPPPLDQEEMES
Sequence of Aurora kinase B (Homo sapiens) (Q96GD4 whole entry): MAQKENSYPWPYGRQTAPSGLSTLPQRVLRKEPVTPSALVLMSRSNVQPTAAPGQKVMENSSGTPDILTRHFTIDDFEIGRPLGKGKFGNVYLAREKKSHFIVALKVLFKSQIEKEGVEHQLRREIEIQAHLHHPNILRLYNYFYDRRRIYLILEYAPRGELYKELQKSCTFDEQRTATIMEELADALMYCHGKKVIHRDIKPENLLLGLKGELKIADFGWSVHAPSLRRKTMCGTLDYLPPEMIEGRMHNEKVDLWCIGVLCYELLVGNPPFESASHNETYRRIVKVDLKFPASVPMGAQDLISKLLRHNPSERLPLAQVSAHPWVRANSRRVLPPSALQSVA
Sequence of Serine/threonine-protein kinase N1 (Homo sapiens) (Q16512 2-942 limits assumed): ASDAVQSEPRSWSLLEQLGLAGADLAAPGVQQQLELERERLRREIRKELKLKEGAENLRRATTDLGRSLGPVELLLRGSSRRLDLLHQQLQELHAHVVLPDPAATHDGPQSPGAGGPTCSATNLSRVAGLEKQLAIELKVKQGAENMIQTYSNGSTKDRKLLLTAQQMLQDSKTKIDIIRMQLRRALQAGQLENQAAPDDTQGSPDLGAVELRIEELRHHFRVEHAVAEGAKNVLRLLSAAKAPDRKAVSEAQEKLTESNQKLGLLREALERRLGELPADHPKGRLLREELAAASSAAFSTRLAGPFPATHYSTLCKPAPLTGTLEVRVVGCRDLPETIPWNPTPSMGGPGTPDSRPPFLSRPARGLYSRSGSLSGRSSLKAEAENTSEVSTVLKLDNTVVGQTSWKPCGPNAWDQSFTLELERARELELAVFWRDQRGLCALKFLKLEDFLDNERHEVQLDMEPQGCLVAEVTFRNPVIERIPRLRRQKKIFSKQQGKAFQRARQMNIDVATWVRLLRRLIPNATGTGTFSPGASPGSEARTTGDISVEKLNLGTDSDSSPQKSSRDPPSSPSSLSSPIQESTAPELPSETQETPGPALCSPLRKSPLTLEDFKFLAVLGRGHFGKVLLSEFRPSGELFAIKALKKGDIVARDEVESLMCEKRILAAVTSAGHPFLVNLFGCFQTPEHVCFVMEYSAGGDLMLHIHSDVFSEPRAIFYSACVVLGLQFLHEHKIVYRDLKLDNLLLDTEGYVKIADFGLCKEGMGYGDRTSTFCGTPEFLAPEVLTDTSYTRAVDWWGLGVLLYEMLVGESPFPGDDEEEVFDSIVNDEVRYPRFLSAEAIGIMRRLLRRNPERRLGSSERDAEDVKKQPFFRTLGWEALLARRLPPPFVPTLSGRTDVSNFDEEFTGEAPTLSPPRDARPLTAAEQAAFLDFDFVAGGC
Sequence of Insulin-like growth factor 1 receptor (Homo sapiens) (P08069 31-736 limits assumed): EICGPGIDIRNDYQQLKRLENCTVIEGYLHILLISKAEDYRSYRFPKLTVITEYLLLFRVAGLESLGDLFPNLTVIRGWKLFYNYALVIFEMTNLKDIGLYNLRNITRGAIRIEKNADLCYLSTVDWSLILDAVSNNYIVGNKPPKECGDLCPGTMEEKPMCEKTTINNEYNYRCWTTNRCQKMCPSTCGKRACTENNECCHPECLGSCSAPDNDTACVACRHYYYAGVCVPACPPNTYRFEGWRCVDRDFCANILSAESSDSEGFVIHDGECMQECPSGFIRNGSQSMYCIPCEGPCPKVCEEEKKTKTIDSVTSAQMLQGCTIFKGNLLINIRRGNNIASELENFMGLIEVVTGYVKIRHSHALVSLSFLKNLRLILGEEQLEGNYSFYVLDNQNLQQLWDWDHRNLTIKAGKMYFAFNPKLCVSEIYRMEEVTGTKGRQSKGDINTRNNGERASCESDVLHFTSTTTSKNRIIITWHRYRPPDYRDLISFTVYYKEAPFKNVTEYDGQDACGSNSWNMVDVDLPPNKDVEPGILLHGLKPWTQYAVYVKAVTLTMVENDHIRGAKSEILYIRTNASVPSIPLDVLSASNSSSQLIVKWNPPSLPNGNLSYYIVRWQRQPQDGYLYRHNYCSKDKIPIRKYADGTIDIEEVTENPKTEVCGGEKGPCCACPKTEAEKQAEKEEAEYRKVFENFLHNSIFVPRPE
Sequence of Insulin-like growth factor 1 receptor (Homo sapiens) (P08069 741-1367 limits assumed): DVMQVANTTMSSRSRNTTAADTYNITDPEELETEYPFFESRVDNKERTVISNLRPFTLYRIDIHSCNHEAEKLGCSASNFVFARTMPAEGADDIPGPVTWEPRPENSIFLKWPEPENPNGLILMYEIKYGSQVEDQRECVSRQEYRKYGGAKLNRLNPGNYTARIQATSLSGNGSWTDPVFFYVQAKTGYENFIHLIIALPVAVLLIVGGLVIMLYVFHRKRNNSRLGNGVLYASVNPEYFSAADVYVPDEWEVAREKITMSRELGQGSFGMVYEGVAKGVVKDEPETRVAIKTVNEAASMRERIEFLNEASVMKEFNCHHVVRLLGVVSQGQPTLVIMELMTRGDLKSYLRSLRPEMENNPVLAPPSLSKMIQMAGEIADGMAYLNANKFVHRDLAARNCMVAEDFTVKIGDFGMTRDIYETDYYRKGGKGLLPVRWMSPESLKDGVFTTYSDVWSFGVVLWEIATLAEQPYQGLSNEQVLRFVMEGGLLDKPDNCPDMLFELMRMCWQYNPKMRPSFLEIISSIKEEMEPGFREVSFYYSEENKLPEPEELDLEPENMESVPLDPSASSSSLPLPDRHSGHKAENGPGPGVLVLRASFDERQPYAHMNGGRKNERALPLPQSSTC
Sequence of Serine/threonine-protein kinase PLK1 (Homo sapiens) (P53350 whole entry): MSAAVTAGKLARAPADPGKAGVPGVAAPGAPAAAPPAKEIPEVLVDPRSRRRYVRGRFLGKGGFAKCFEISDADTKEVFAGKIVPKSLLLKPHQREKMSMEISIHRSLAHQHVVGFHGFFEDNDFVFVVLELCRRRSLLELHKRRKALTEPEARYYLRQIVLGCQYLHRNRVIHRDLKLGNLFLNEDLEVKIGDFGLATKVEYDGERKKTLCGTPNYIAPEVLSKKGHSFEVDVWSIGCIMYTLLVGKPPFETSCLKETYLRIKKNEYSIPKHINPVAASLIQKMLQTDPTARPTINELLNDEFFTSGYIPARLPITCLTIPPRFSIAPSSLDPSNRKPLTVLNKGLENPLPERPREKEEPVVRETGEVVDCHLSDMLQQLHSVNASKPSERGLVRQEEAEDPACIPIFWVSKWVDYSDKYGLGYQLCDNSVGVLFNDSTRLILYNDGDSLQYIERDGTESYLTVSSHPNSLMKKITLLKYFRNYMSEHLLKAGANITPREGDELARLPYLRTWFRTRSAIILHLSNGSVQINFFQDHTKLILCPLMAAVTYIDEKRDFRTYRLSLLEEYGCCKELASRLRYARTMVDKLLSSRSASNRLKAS
Sequence of Serine/threonine-protein kinase B-raf (Homo sapiens), P15056 [V600E] (P15056 whole entry V600E): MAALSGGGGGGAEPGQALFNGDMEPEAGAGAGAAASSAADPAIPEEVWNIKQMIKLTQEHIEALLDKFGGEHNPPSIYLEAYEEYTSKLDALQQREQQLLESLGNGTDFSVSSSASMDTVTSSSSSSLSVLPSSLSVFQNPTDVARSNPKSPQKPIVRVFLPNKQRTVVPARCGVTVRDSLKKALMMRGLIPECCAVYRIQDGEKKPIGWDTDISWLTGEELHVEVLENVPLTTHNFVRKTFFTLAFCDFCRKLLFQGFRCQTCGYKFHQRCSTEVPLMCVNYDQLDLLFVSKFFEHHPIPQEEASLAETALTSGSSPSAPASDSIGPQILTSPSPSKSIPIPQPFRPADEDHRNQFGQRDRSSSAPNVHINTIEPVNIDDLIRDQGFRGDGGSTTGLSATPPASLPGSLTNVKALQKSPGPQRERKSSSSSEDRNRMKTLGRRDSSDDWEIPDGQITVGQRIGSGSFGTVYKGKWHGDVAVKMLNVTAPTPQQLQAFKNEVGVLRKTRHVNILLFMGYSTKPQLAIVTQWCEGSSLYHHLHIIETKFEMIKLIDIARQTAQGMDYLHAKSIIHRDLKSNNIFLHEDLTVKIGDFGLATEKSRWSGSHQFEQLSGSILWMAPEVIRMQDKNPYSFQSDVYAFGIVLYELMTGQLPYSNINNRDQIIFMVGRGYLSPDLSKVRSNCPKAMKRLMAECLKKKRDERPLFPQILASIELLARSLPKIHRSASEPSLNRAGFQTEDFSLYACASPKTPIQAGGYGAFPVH
Sequence of Proto-oncogene tyrosine-protein kinase Src (Homo sapiens) (P12931 2-536 limits assumed): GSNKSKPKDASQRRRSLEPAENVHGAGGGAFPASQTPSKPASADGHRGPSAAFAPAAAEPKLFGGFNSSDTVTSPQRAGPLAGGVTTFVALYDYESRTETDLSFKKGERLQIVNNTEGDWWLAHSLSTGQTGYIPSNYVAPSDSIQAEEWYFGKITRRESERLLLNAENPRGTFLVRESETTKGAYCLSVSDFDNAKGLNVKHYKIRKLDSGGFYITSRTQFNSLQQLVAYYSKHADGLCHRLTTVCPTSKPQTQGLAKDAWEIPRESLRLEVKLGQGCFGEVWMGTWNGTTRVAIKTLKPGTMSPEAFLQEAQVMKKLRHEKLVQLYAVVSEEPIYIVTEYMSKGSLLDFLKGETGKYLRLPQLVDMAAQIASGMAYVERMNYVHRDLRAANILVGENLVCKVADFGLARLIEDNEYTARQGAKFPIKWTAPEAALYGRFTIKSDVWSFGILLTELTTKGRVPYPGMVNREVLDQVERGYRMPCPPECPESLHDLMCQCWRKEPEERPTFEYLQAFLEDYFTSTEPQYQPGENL

| IC50 [1] [nM] | IC50 [2] [nM] | Compound | also measured |
| --- | --- | --- | --- |
| 3800 | 560 | O=C1c2ccc(Nc3ccc(F)cc3Cl)cc2CCc2ccc(O)cc21 | – |
| 7600 | 380 | COc1ccc2c(c1)C(=O)c1ccc(Nc3ccccc3OC)cc1CC2 | – |
| 19500 | 30 | O=C1c2ccc(Nc3ccc(F)cc3F)cc2CCc2cc(OCCCO)ccc21 | – |
| 26700 | 300 | O=c1c2ccc(Nc3ccc(F)cc3F)cc2ccc2ccc(O)cc12 | – |
| 170 | 8 | Nc1ccccc1Nc1ccc2c(c1)CCc1ccc(OC[C@@H](O)CO)cc1C2=O | – |
| 6000 | 30 | Nc1ccccc1Nc1ccc2c(c1)CCc1cc(OC[C@H](O)CO)ccc1C2=O | – |
| 700 | 20 | O=C1c2ccc(Nc3ccc(F)cc3F)cc2CCc2ccc(O)cc21 | – |
| 80 | 10 | O=C1c2ccc(Nc3ccc(F)cc3F)cc2CCc2ccc(OCC[C@@H](O)CO)cc21 | – |
| – | – | O=C1c2ccc(Nc3ccc(F)cc3F)cc2CCc2ccc(OC[C@@H](O)CO)cc21 | inhibition [3]: inactive; inhibition [4]: inactive; inhibition [5]: inactive; inhibition [6]: inactive; inhibition [7]: inactive; inhibition [8]: inactive; inhibition [9]: inactive; inhibition [10]: inactive; inhibition [11]: inactive; inhibition [12]: inactive; inhibition [13]: inactive; inhibition [14]: inactive; inhibition [15]: inactive; inhibition [16]: inactive; inhibition [17]: inactive; inhibition [18]: inactive |
| 1200 | 20 | COc1ccc2c(c1)C(=O)c1ccc(Nc3ccc(F)cc3F)cc1CC2 | – |
| 3200 | 70 | COc1ccc2c(c1)C(=O)c1ccc(Nc3ccccc3)cc1CC2 | – |
| 190 | 60 | CC1(C)OC[C@@H](COc2ccc3c(c2)C(=O)c2ccc(Nc4ccccc4N)cc2CC3)O1 | – |
| 7500 | 140 | O=C1c2ccc(Nc3ccccc3Cl)cc2CCc2ccc(O)cc21 | – |
| 93600 | 80 | CC1(C)OC[C@H](COc2ccc3c(c2)CCc2cc(Nc4ccccc4N)ccc2C3=O)O1 | – |
| 1500 | 40 | COc1ccc2c(c1)C(=O)c1ccc(Nc3ccccc3N)cc1CC2 | – |
| 4900 | 70 | COc1ccc2c(c1)C(=O)c1ccc(Nc3ccccc3F)cc1CC2 | – |
